Test results published in patent US7507739B2, “6-[(substituted)phenyl]triazolopyrimidines as anticancer agents” (Wyeth, priority 2003, dated 2009).
Marks after values point to notes of the source that are not given here.

Experiments:
[1] = tested on: HT-29 Human Colon Carcinoma; assay: Human tumor xenograft test, HT-29; type: in vivo, athymic mice
Procedure: (§1) The ability of compounds of this invention to inhibit tumor growth in animals is studied in the athymic mouse xenograft standard pharmacological test. Female nu/nu mice in an outbred albino background are obtained from Charles River Laboratories (Wilmington, Mass.). Animals are injected subcutaneously on the flank with the desired tumor cell suspension. Several days later, mice with tumors of approximately 150 mm^3 are selected from those injected (staged) and randomly distributed into groups of 5-10. The day of staging is called day 0. Compounds of the invention, usually formulated in saline (exceptions are noted in tables), are administered to animals by intravenous injection or oral gavage on various schedules starting on day 0 or 1, as noted in the tables. The control group in each experiment is dosed with vehicle on the same schedule. Tumor size is measured every 3-7 days with calipers in two orthogonal dimensions, and tumor volume is calculated from the formula volume=[(length×width^2)/2].
(§2) Tumor/Control (T/C) is obtained by dividing the mean tumor volume of the treated group by the mean tumor volume of the control group on each measurement day. A treatment dose is defined as active if it produced a statistically significant T/C of 0.50 or less. A p value≦0.05, determined by one-side Student's t-test, is required for statistical significance. A treatment dose is defined as toxic if more than 10% of the animals died from a compound-related toxicity.

[2] = tested on: U87-MG Human Glioblastoma; assay: Human tumor xenograft test, U87-MG; type: in vivo, athymic mice; conditions: U87-MG
Procedure: as §1, §2

HeLa cells = assay: Cell cycle analysis with HeLa cells; type: cell-based, human; conditions: 18 hr
[3] = tested on: A549 Human Non-Small Cell Lung Carcinoma; assay: Human tumor xenograft test, A549; type: in vivo, athymic mice; conditions: for T/C on day 0 / T/C on day 7 / T/C on day 14 / T/C on day 21 / T/C on day 27 / T/C on day 35: days 0, 6, 13, 20
Procedure: as §1, §2

`CNCCCOc1cc(F)c(-c2c(Cl)nc3ncnn3c2N[C@@H](C)C(F)(F)F)c(F)c1.Cl` [Example 2a, 5-Chloro-6-{2,6-difluoro-4-[3-(methylamino)propoxy]phenyl}-N-[(1S)-2,2,2-trifluoro-1-methylethyl][1,2,4]triazolo[1,5-a]pyrimidin-7-amine hydrogen chloride] was tested. Which “T/C on day 0” value ([1]; HT-29, 25 mg/kg IV, days 1, 7) did it give?
Its value is 1.00.

What about the “T/C on day 7” value ([1]; HT-29, 25 mg/kg IV, days 1, 7) of the same molecule?
The value was 0.44**.

And the “T/C on day 10” value ([1]; HT-29, 25 mg/kg IV, days 1, 7)?
The value was 0.34**.

What about the “T/C on day 13” value ([1]; HT-29, 25 mg/kg IV, days 1, 7) of the same molecule?
Its value is 0.26**.

What about the “T/C on day 21” value ([1]; HT-29, 25 mg/kg IV, days 1, 7) of the same molecule?
The value was 0.43**.

And the “T/C on day 24” value ([1]; HT-29, 25 mg/kg IV, days 1, 7)?
Its value is 0.46**.

And the “tumor growth inhibition (activity call)” value ([1]; HT-29, 25 mg/kg intravenously on days 1 and 7)?
The value was “inhibited the growth”.

What about the “tumor growth inhibition (activity call)” value ([2]; orally single dose on day 0 at 5 or 2.5 mg/kg) of the same molecule?
The value was “not at 5 or 2.5 mg/kg”.

And the “tumor growth inhibition (activity call)” value ([2]; orally single dose on day 0 at 30, 20, and 10 mg/kg)?
The value was “inhibited the growth”.

What about the “Percent in Cell Cycle Phase >4N” value (HeLa cells; 20 nM) of the same molecule?
The value was 2%.

What about the “Percent in Cell Cycle Phase Apop” value (HeLa cells; 20 nM) of the same molecule?
The value was 28%.

And the “Percent in Cell Cycle Phase G1” value (HeLa cells; 20 nM)?
Its value is 41%.

What about the “Percent in Cell Cycle Phase G2/M” value (HeLa cells; 20 nM) of the same molecule?
The value was 16%.

And the “Percent in Cell Cycle Phase S” value (HeLa cells; 20 nM)?
Its value is 14%.

What about the “Percent in Cell Cycle Phase >4N” value (HeLa cells; 30 nM) of the same molecule?
The value was 2%.

What about the “Percent in Cell Cycle Phase Apop” value (HeLa cells; 30 nM) of the same molecule?
Its value is 62%.

What about the “Percent in Cell Cycle Phase G1” value (HeLa cells; 30 nM) of the same molecule?
Its value is 12%.

What about the “Percent in Cell Cycle Phase G2/M” value (HeLa cells; 30 nM) of the same molecule?
The value was 16%.

And the “Percent in Cell Cycle Phase S” value (HeLa cells; 30 nM)?
The value was 10%.

What about the “Percent in Cell Cycle Phase >4N” value (HeLa cells; 40 nM) of the same molecule?
Its value is 2%.

And the “Percent in Cell Cycle Phase Apop” value (HeLa cells; 40 nM)?
Its value is 44%.

What about the “Percent in Cell Cycle Phase G1” value (HeLa cells; 40 nM) of the same molecule?
Its value is 5%.

What about the “Percent in Cell Cycle Phase G2/M” value (HeLa cells; 40 nM) of the same molecule?
The value was 39%.

And the “Percent in Cell Cycle Phase S” value (HeLa cells; 40 nM)?
The value was 9%.

What about the “Percent in Cell Cycle Phase >4N” value (HeLa cells; 50 nM) of the same molecule?
The value was 4%.

And the “Percent in Cell Cycle Phase Apop” value (HeLa cells; 50 nM)?
Its value is 25%.

And the “Percent in Cell Cycle Phase G1” value (HeLa cells; 50 nM)?
Its value is 5%.

What about the “Percent in Cell Cycle Phase G2/M” value (HeLa cells; 50 nM) of the same molecule?
Its value is 58%.

And the “Percent in Cell Cycle Phase S” value (HeLa cells; 50 nM)?
Its value is 9%.

And the “Percent in Cell Cycle Phase >4N” value (HeLa cells; 60 nM)?
The value was 4%.

What about the “Percent in Cell Cycle Phase Apop” value (HeLa cells; 60 nM) of the same molecule?
Its value is 24%.

What about the “Percent in Cell Cycle Phase G1” value (HeLa cells; 60 nM) of the same molecule?
Its value is 4%.

What about the “Percent in Cell Cycle Phase G2/M” value (HeLa cells; 60 nM) of the same molecule?
Its value is 58%.

And the “Percent in Cell Cycle Phase S” value (HeLa cells; 60 nM)?
The value was 9%.

What about the “Percent in Cell Cycle Phase >4N” value (HeLa cells; 70 nM) of the same molecule?
The value was 4%.

What about the “Percent in Cell Cycle Phase Apop” value (HeLa cells; 70 nM) of the same molecule?
The value was 22%.

And the “Percent in Cell Cycle Phase G1” value (HeLa cells; 70 nM)?
Its value is 6%.

What about the “Percent in Cell Cycle Phase G2/M” value (HeLa cells; 70 nM) of the same molecule?
Its value is 57%.

What about the “Percent in Cell Cycle Phase S” value (HeLa cells; 70 nM) of the same molecule?
Its value is 11%.

And the “Percent in Cell Cycle Phase >4N” value (HeLa cells; 80 nM)?
The value was 4%.

What about the “Percent in Cell Cycle Phase Apop” value (HeLa cells; 80 nM) of the same molecule?
Its value is 26%.

What about the “Percent in Cell Cycle Phase G1” value (HeLa cells; 80 nM) of the same molecule?
The value was 7%.

And the “Percent in Cell Cycle Phase G2/M” value (HeLa cells; 80 nM)?
The value was 52%.

What about the “Percent in Cell Cycle Phase S” value (HeLa cells; 80 nM) of the same molecule?
Its value is 11%.

And the “Percent in Cell Cycle Phase >4N” value (HeLa cells; 90 nM)?
The value was 4%.

What about the “Percent in Cell Cycle Phase Apop” value (HeLa cells; 90 nM) of the same molecule?
The value was 30%.

What about the “Percent in Cell Cycle Phase G1” value (HeLa cells; 90 nM) of the same molecule?
The value was 7%.

And the “Percent in Cell Cycle Phase G2/M” value (HeLa cells; 90 nM)?
The value was 46%.

What about the “Percent in Cell Cycle Phase S” value (HeLa cells; 90 nM) of the same molecule?
The value was 13%.

What about the “Percent in Cell Cycle Phase >4N” value (HeLa cells; 100 nM) of the same molecule?
Its value is 4%.

What about the “Percent in Cell Cycle Phase Apop” value (HeLa cells; 100 nM) of the same molecule?
The value was 34%.

What about the “Percent in Cell Cycle Phase G1” value (HeLa cells; 100 nM) of the same molecule?
The value was 7%.

What about the “Percent in Cell Cycle Phase G2/M” value (HeLa cells; 100 nM) of the same molecule?
The value was 41%.

What about the “Percent in Cell Cycle Phase S” value (HeLa cells; 100 nM) of the same molecule?
The value was 15%.

What about the “Percent in Cell Cycle Phase >4N” value (HeLa cells; 110 nM) of the same molecule?
Its value is 4%.

What about the “Percent in Cell Cycle Phase Apop” value (HeLa cells; 110 nM) of the same molecule?
Its value is 37%.

What about the “Percent in Cell Cycle Phase G1” value (HeLa cells; 110 nM) of the same molecule?
The value was 9%.

What about the “Percent in Cell Cycle Phase G2/M” value (HeLa cells; 110 nM) of the same molecule?
Its value is 37%.

What about the “Percent in Cell Cycle Phase S” value (HeLa cells; 110 nM) of the same molecule?
Its value is 14%.

And the “Percent in Cell Cycle Phase >4N” value (HeLa cells; 120 nM)?
Its value is 4%.

And the “Percent in Cell Cycle Phase Apop” value (HeLa cells; 120 nM)?
The value was 39%.

And the “Percent in Cell Cycle Phase G1” value (HeLa cells; 120 nM)?
Its value is 8%.

And the “Percent in Cell Cycle Phase G2/M” value (HeLa cells; 120 nM)?
Its value is 36%.

What about the “Percent in Cell Cycle Phase S” value (HeLa cells; 120 nM) of the same molecule?
The value was 15%.

And the “T/C on day 0” value ([3]; A549, 15 mg/kg IV)?
The value was 1.01.

And the “T/C on day 7” value ([3]; A549, 15 mg/kg IV)?
The value was 0.75*.

And the “T/C on day 14” value ([3]; A549, 15 mg/kg IV)?
Its value is 0.61**.

What about the “T/C on day 21” value ([3]; A549, 15 mg/kg IV) of the same molecule?
The value was 0.83.

What about the “T/C on day 27” value ([3]; A549, 15 mg/kg IV) of the same molecule?
Its value is 0.75.

And the “T/C on day 35” value ([3]; A549, 15 mg/kg IV)?
The value was 0.76.

What about the “tumor growth inhibition (activity call)” value ([3]; A549, 15 mg/kg intravenously on days 0, 6, 13, and 20) of the same molecule?
The value was “not at 15 mg/kg”.

And the “T/C on day 0” value ([3]; A549, 20 mg/kg IV)?
The value was 0.97.

What about the “T/C on day 7” value ([3]; A549, 20 mg/kg IV) of the same molecule?
The value was 0.79.

What about the “T/C on day 14” value ([3]; A549, 20 mg/kg IV) of the same molecule?
Its value is 0.55**.

And the “T/C on day 21” value ([3]; A549, 20 mg/kg IV)?
Its value is 0.59*.

What about the “T/C on day 27” value ([3]; A549, 20 mg/kg IV) of the same molecule?
Its value is 0.50*.

And the “T/C on day 35” value ([3]; A549, 20 mg/kg IV)?
Its value is 0.49*.

And the “T/C on day 0” value ([3]; A549, 25 mg/kg IV)?
The value was 0.99.

What about the “T/C on day 7” value ([3]; A549, 25 mg/kg IV) of the same molecule?
The value was 0.72*.

And the “T/C on day 14” value ([3]; A549, 25 mg/kg IV)?
The value was 0.51**.

What about the “T/C on day 21” value ([3]; A549, 25 mg/kg IV) of the same molecule?
The value was 0.57*.

And the “T/C on day 27” value ([3]; A549, 25 mg/kg IV)?
Its value is 0.48*.

And the “T/C on day 35” value ([3]; A549, 25 mg/kg IV)?
The value was 0.44*.

What about the “tumor growth inhibition (activity call)” value ([3]; A549, 25 and 20 mg/kg intravenously on days 0, 6, 13, and 20) of the same molecule?
The value was “inhibited the growth”.
